Source: article PMC10141580, “Cyclic Dichalcogenides Extend the Reach of Bioreductive Prodrugs to Harness Thiol/Disulfide Oxidoreductases: Applications to seco-Duocarmycins Targeting the Thioredoxin System” (ACS Central Science, 2023)
Values joined by “and” are separate entries in the source; they are usually repeats but may differ in a detail not shown here. Equal entries are not always repeated. Where two headings read alike, the source gives them in different places.

System: panel of 140 standard cancer cell lines
Test: ProliFiler-140 cancer cell line screen (CellTiterGlo, 72 h)
Assay type: cell-based
Experimental: Incubations were performed for 72 h before automated viability readout with CellTiterGlo (Figure 8).
End of Figure S11 (part 5 of 5): ProliFiler-140 cancer cell line screening for cytotoxicity of the prodrugs.
8-data-point dose response curves from CellTiter-Glo® viability readout.
ProliFiler-140 cell line panel part V

SMILES: COc1cc2cc(C(=O)N3C[C@@H](CCl)c4c3cc(OC(=O)N(CCC(=O)N3CCN(C)CC3)[C@H]3CCSSC3)c3ccccc43)[nH]c2c(OC)c1OC [P-SS60-CBI-TMI]
- Reductive Activation Index (MKN-1 (Stomach)): 7.3
- IC50 (MKN-1 (Stomach), read-out: IC50 [M] (ProliFiler-140)): 2.1e-07 M
- Reductive Activation Index (MKN-45 (Stomach)): 5.36
- IC50 (MKN-45 (Stomach), read-out: IC50 [M] (ProliFiler-140)): 9.08e-08 M and 9.1e-08 M
- IC50 (MOLM-13 (Blood), read-out: IC50 [M] (ProliFiler-140)): 9.1e-09 M and 9.12e-09 M
- IC50 (MOLT-4 (Blood), read-out: IC50 [M] (ProliFiler-140)): 1.3e-08 M and 1.29e-08 M
- IC50 (MOLT-4, read-out: IC50): 1.3e-08 M
- IC50 (MV4-11 (Blood), read-out: IC50 [M] (ProliFiler-140)): 2.8e-09 M and 2.76e-09 M
- Reductive Activation Index (Mia PaCA 2 (Pancreas)): 5.48
- IC50 (Mia PaCA 2 (Pancreas), read-out: IC50 [M] (ProliFiler-140)): 6.84e-08 M and 6.8e-08 M
- Reductive Activation Index (NALM-6 (Blood)): 5.7
- IC50 (NALM-6 (Blood), read-out: IC50 [M] (ProliFiler-140)): 9.79e-09 M and 9.8e-09 M
- Reductive Activation Index (NCI-H82 (Lung)): 5.0
- IC50 (NCI-H82 (Lung), read-out: IC50 [M] (ProliFiler-140)): 1.5e-07 M and 1.49e-07 M
- IC50 (NCI-H292 (Lung), read-out: IC50 [M] (ProliFiler-140)): 4.8e-08 M and 4.84e-08 M
- Reductive Activation Index (NCI-H441 (Lung)): 5.40
- IC50 (NCI-H441 (Lung), read-out: IC50 [M] (ProliFiler-140)): 5.44e-08 M and 5.4e-08 M
- Reductive Activation Index (NCI-H838 (Lung)): 6.2
- IC50 (NCI-H838 (Lung), read-out: IC50 [M] (ProliFiler-140)): 1.2e-07 M and 1.21e-07 M
- Reductive Activation Index (NCI-H1048 (Lung)): 7.4
- IC50 (NCI-H1048 (Lung), read-out: IC50 [M] (ProliFiler-140)): 8e-09 M and 8.01e-09 M
- IC50 (NCI-H1437 (Lung), read-out: IC50 [M] (ProliFiler-140)): 5.21e-08 M and 5.2e-08 M
- Reductive Activation Index (NCI-H1563 (Lung)): 8.6
- IC50 (NCI-H1563 (Lung), read-out: IC50 [M] (ProliFiler-140)): 2e-07 M and 1.97e-07 M
- Reductive Activation Index (NCI-H1573 (Lung)): 6.1
- IC50 (NCI-H1573 (Lung), read-out: IC50 [M] (ProliFiler-140)): 1.8e-07 M and 1.76e-07 M
- IC50 (NCI-H1581 (Lung), read-out: IC50 [M] (ProliFiler-140)): 4.23e-08 M and 4.2e-08 M
- Reductive Activation Index (NCI-H1703 (Lung)): 6.7
- IC50 (NCI-H1703 (Lung), read-out: IC50 [M] (ProliFiler-140)): 1.2e-07 M and 1.21e-07 M
- Reductive Activation Index (NCI-H1838 (Lung)): 9.6
- IC50 (NCI-H1838 (Lung), read-out: IC50 [M] (ProliFiler-140)): 8.5e-08 M and 8.53e-08 M
- IC50 (NCI-H2009 (Lung), read-out: IC50 [M] (ProliFiler-140)): 6.17e-08 M and 6.2e-08 M
- IC50 (NCI-H2110 (Lung), read-out: IC50 [M] (ProliFiler-140)): 2.7e-08 M and 2.67e-08 M
- IC50 (NCI-H2286 (Lung), read-out: IC50 [M] (ProliFiler-140)): 1.9e-08 M and 1.91e-08 M
- Reductive Activation Index (NCI-N87 (Stomach)): 8.1
- IC50 (NCI-N87 (Stomach), read-out: IC50 [M] (ProliFiler-140)): 1.4e-07 M and 1.41e-07 M
- IC50 (OCI-AML3 (Blood), read-out: IC50 [M] (ProliFiler-140)): 3.3e-08 M and 3.29e-08 M
- Reductive Activation Index (OCI-AML5 (Blood)): 3.9 and 3.93
- IC50 (OCI-AML5 (Blood), read-out: IC50 [M] (ProliFiler-140)): 8.6e-09 M and 8.62e-09 M
- Reductive Activation Index (OCI-LY19 (Blood)): 3.74
- IC50 (OCI-LY19 (Blood), read-out: IC50 [M] (ProliFiler-140)): 4.11e-09 M and 4.1e-09 M
- Reductive Activation Index (OPM-2 (Blood)): 5.41
- IC50 (OPM-2 (Blood), read-out: IC50 [M] (ProliFiler-140)): 1.22e-07 M and 1.2e-07 M
- Reductive Activation Index (OV56 (Ovary)): 3.10
- IC50 (OV56 (Ovary), read-out: IC50 [M] (ProliFiler-140)): 6.51e-08 M and 6.5e-08 M
- Reductive Activation Index (OVCAR-3 (Ovary)): 8.7
- IC50 (OVCAR-3 (Ovary), read-out: IC50 [M] (ProliFiler-140)): 1.2e-07 M and 1.17e-07 M
- IC50 (OVCAR-3, read-out: IC50): 1.2e-07 M
- Reductive Activation Index (OVK18 (Ovary)): 4.66
- IC50 (OVK18 (Ovary), read-out: IC50 [M] (ProliFiler-140)): 4.29e-08 M and 4.3e-08 M
- IC50 (P31/FUJ (Blood), read-out: IC50 [M] (ProliFiler-140)): 3.7e-08 M and 3.66e-08 M
- Reductive Activation Index (PANC-1 (Pancreas)): 5.4
- IC50 (PANC-1 (Pancreas), read-out: IC50 [M] (ProliFiler-140)): 2.5e-07 M and 2.53e-07 M
- IC50 (PC3 (Prostate), read-out: IC50 [M] (ProliFiler-140)): 5.8e-08 M
- IC50 (PC3, read-out: IC50): 5.8e-08 M
- IC50 (PC-9 (Lung), read-out: IC50 [M] (ProliFiler-140)): 1.7e-08 M
- Reductive Activation Index (RERF-LC-Ad2 (Lung)): 4.2 and 4.21
- IC50 (RERF-LC-Ad2 (Lung), read-out: IC50 [M] (ProliFiler-140)): 1.9e-07 M and 1.86e-07 M
- IC50 (RERF-LC-MS (Lung), read-out: IC50 [M] (ProliFiler-140)): 6.44e-08 M and 6.4e-08 M
- IC50 (RKO (Colon), read-out: IC50 [M] (ProliFiler-140)): 4.51e-08 M and 4.5e-08 M
- Reductive Activation Index (RL95-2 (Endometrium)): 4.84
- IC50 (RL95-2 (Endometrium), read-out: IC50 [M] (ProliFiler-140)): 1.54e-07 M and 1.5e-07 M
- IC50 (RPMI 8226 (Blood), read-out: IC50 [M] (ProliFiler-140)): 3.86e-08 M and 3.9e-08 M
- IC50 (RPMI 8226, read-out: IC50): 3.9e-08 M
- IC50 (SCH (Stomach), read-out: IC50 [M] (ProliFiler-140)): 5.2e-08 M and 5.16e-08 M
- Reductive Activation Index (SCLC-21H (Lung)): 4.91
- IC50 (SCLC-21H (Lung), read-out: IC50 [M] (ProliFiler-140)): 3.21e-08 M and 3.2e-08 M
- Reductive Activation Index (SJSA-1 (Bone)): 15.99
- IC50 (SJSA-1 (Bone), read-out: IC50 [M] (ProliFiler-140)): 2.37e-08 M and 2.4e-08 M
- IC50 (SK-BR-3 (Breast), read-out: IC50 [M] (ProliFiler-140)): 7.4e-08 M and 7.39e-08 M
- IC50 (SK-ES-1 (Bone), read-out: IC50 [M] (ProliFiler-140)): 5.66e-09 M and 5.7e-09 M
- IC50 (SK-LU-1 (Lung), read-out: IC50 [M] (ProliFiler-140)): 2.7e-08 M
- Reductive Activation Index (SK-MEL-3 (Skin)): 5.8
- IC50 (SK-MEL-3 (Skin), read-out: IC50 [M] (ProliFiler-140)): 1.8e-07 M and 1.77e-07 M
- Reductive Activation Index (SK-N-FI (Brain)): 5.68
- IC50 (SK-N-FI (Brain), read-out: IC50 [M] (ProliFiler-140)): 1.2e-07 M
- IC50 (SK-N-MC (Brain), read-out: IC50 [M] (ProliFiler-140)): 2.7e-09 M
- Reductive Activation Index (SK-N-SH (Brain)): 5.1 and 5.09
- IC50 (SK-N-SH (Brain), read-out: IC50 [M] (ProliFiler-140)): 1.5e-07 M and 1.46e-07 M
- IC50 (SK-OV3 (Ovary), read-out: IC50 [M] (ProliFiler-140)): 6.17e-08 M and 6.2e-08 M
- IC50 (SK-OV3, read-out: IC50): 6.2e-08 M
- Reductive Activation Index (SNU840 (Ovary)): 1.83
- IC50 (SNU840 (Ovary), read-out: IC50 [M] (ProliFiler-140)): 3.82e-08 M and 3.8e-08 M
- IC50 (SNU-1 (Stomach), read-out: IC50 [M] (ProliFiler-140)): 3e-08 M
- IC50 (SNU-16 (Stomach), read-out: IC50 [M] (ProliFiler-140)): 1.23e-07 M and 1.2e-07 M
- Reductive Activation Index (SNU-216 (Stomach)): 6.77 and 6.8
- IC50 (SNU-216 (Stomach), read-out: IC50 [M] (ProliFiler-140)): 2.72e-07 M and 2.7e-07 M
- Reductive Activation Index (SU-DHL-5 (Blood)): 6.4
- IC50 (SU-DHL-5 (Blood), read-out: IC50 [M] (ProliFiler-140)): 7.8e-09 M and 7.78e-09 M
- Reductive Activation Index (SW480 (Colon)): 5.10
- IC50 (SW480 (Colon), read-out: IC50 [M] (ProliFiler-140)): 6.5e-08 M
- Reductive Activation Index (SW620 (Colon)): 5.01
- IC50 (SW620 (Colon), read-out: IC50 [M] (ProliFiler-140)): 1.4e-07 M
- IC50 (SW620, read-out: IC50): 1.4e-07 M
- Reductive Activation Index (SW948 (Colon)): 5.26
- IC50 (SW948 (Colon), read-out: IC50 [M] (ProliFiler-140)): 1.29e-07 M and 1.3e-07 M
- IC50 (SW-1783 (Brain), read-out: IC50 [M] (ProliFiler-140)): 6.68e-08 M and 6.7e-08 M
- Reductive Activation Index (Saos-2 EC (Bone)): 6.02
- IC50 (Saos-2 EC (Bone), read-out: IC50 [M] (ProliFiler-140)): 3.88e-08 M and 3.9e-08 M
- Reductive Activation Index (SiHa (Ovary)): 5.51
- IC50 (SiHa (Ovary), read-out: IC50 [M] (ProliFiler-140)): 1.11e-07 M and 1.1e-07 M
- Reductive Activation Index (T84 (Colon)): 5.12 and 5.1
- IC50 (T84 (Colon), read-out: IC50 [M] (ProliFiler-140)): 1.77e-07 M and 1.8e-07 M
- IC50 (T98G (Brain), read-out: IC50 [M] (ProliFiler-140)): 8.64e-08 M and 8.6e-08 M
- Reductive Activation Index (T-47D (Breast)): 4.5
- IC50 (T-47D (Breast), read-out: IC50 [M] (ProliFiler-140)): 2.3e-07 M and 2.31e-07 M
- IC50 (T-47D, read-out: IC50): 2.3e-07 M
- Reductive Activation Index (U2OS (Bone)): 5.36
- IC50 (U2OS (Bone), read-out: IC50 [M] (ProliFiler-140)): 2.44e-08 M and 2.4e-08 M
- Reductive Activation Index (U87MG (Brain)): 5.4
- IC50 (U87MG (Brain), read-out: IC50 [M] (ProliFiler-140)): 2.3e-07 M and 2.25e-07 M
- Reductive Activation Index (U118MG (Brain)): 2.81
- IC50 (U118MG (Brain), read-out: IC50 [M] (ProliFiler-140)): 1.4e-07 M
- Reductive Activation Index (U251MG (Brain)): 11
- IC50 (U251MG (Brain), read-out: IC50 [M] (ProliFiler-140)): 1.9e-07 M and 1.88e-07 M
- IC50 (U-266 (Blood), read-out: IC50 [M] (ProliFiler-140)): 2.23e-08 M and 2.2e-08 M
- Reductive Activation Index (U-937 (Blood)): 4.50
- IC50 (U-937 (Blood), read-out: IC50 [M] (ProliFiler-140)): 1.64e-08 M and 1.6e-08 M
- Reductive Activation Index (ZR-75-1 (Breast)): 6.4
- IC50 (ZR-75-1 (Breast), read-out: IC50 [M] (ProliFiler-140)): 2.22e-07 M and 2.2e-07 M
- IC50 (read-out: IC50 [M] (ProliFiler-140)): 1.74e-08 M and 1.7e-08 M
